# Legend:
# cyclooxygenase = molecular target: T1, cyclooxygenase (Mus musculus, UniProt P22437); assay: Cyclooxygenase inhibition: release of 6-keto-PGF1 α from zymosan-stimulated mouse peritoneal macrophage cells; assay type: cell-based; conditions: 10^-5 mol/l, read-out: In vitro % inhibition effect on the release of 6-keto-PGF1 α
# T1 construct: A cell suspension containing peritoneal cells of male mice 8-10 weeks old was obtained; endogenous in cells; host or cells: mouse peritoneal macrophages (male mice 8-10 weeks old), zymosan-stimulated
# T1 sequence (P22437 27-602): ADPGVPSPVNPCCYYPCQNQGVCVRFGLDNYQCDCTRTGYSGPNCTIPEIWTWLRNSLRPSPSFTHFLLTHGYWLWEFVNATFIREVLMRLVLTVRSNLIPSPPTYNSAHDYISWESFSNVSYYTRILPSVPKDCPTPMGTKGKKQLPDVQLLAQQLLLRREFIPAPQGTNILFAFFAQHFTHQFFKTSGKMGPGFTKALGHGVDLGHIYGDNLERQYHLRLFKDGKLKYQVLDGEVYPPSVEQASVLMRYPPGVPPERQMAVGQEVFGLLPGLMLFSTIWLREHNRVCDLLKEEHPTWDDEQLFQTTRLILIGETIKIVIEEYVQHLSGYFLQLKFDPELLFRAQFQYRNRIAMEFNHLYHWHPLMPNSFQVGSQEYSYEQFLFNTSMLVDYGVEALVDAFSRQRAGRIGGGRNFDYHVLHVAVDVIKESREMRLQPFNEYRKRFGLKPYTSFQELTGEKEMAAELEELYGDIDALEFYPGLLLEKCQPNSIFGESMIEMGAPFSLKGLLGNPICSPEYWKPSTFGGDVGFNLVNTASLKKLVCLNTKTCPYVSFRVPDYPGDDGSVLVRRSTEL
# Text: (§1) 5. In vitro determination of cyclooxygenase inhibition and 5-lipoxygenase inhibition.
# (§2) After activation of the cell, arachidonic acid contained in cell membranes is metabolized in two ways. Leukotrienes, inter alia leukotriene C4, are formed under the action of the enzyme 5-lipoxygenase (5-LO), and prostanoids are formed under the action of the enzyme cyclooxygenase (CO). In in vitro systems, the metabolites are secreted from the cell.
# (§3) To investigate the cyclooxygenase-inhibiting and the 5-lipoxygenase-inhibiting properties, the inhibitory effect of the test substances on the biosynthesis of the arachidonic acid derivatives leukotriene C4 (LTC4) and 6-ketoprostaglandin F1 α (6-keto-PGF1 α) is determined in vitro on mouse peritoneal macrophage cells. This was accomplished by determining the LTC4 and 6-keto-PGF1 α contents in a culture medium of mouse peritoneal macrophage cells by zymosan stimulation as described by Scott et al. (J. Exp. Med. 152 (1980), 324-335) and by Fradin et al. (Prostaglandins, 33 (1987), 579-589).
# (§4) A cell suspension containing peritoneal cells of male mice 8-10 weeks old was obtained in a known manner. A commercially available cell culture solution (RPMI 1640 from Messrs. Gibco) was used to which heparin (I0 international units/ml) and antibiotics were added according to the recipe of Bonney et al. (Biochem. J. 176 (1978) 422-433). The cell suspension was adjusted to a cell concentration of 10^6 cells per ml and distributed uniformly on titer plates containing […] (wells). These were kept for two hours in a humidified incubator filled with air enriched with 7% CO2. Cells not adhering to the titer cell walls were then removed by washing. The remaining macrophage cells adhering to the walls were incubated for about 12 hours in a suspension medium to which 0.1% bovine serum albumin (BSA) were added. The suspension medium was then replaced by a Hanks balanced salt solution (HBSS) containing 10 mM Hepes (hydroxyethyl-piperazinoethanesulfonic acid), to which a 0.1% strength solution of the test substances in aqueous, 1% strength dimethylformamide or only the solvent had been added. After 15 minutes the arachidonic acid metabolism was stimulated by adding 10 particles of zymosan (=glycoproteinmixture, isolated from cell walls of beer yeast, Saccharomyces cerevisiae, manufactured by Sigma Chemical Co., Munich) per titer cell. After 2 hours, samples of each of the supernatant liquids were investigated for their 6-keto-PGF1 α and LTC4 contents by means of an enzyme immunoassay (EIA) carried out by the method of Pradelles et al. (Analytical Chem. 57 (1985), 1170-1173). The determination of LTC4 and the determination of 6-keto-PGF1 α were each carried out in comparison with a comparative scale on suitable dilutions of the samples (1:50 to 1:250 for the LTC4 determination and 1:250 to 1:1250 for the 6-keto-PGF1 α determination). To determine the inhibitory effect of a 10^-5 molar concentration of the compounds, the amount of reference eicosanoids was determined and the inhibitory effect was calculated from this in % inhibition compared to the measurements of the zymosan controls.
# 5-lipoxygenase = molecular target: T2, 5-lipoxygenase (Mus musculus, UniProt P48999); assay: 5-lipoxygenase inhibition: release of LTC4 from zymosan-stimulated mouse peritoneal macrophage cells; assay type: cell-based; conditions: 10^-5 mol/l, read-out: In vitro % inhibition effect on the release of LTC4
# T2 construct: A cell suspension containing peritoneal cells of male mice 8-10 weeks old was obtained; endogenous in cells; host or cells: mouse peritoneal macrophages (male mice 8-10 weeks old), zymosan-stimulated
# T2 sequence (P48999 1-674): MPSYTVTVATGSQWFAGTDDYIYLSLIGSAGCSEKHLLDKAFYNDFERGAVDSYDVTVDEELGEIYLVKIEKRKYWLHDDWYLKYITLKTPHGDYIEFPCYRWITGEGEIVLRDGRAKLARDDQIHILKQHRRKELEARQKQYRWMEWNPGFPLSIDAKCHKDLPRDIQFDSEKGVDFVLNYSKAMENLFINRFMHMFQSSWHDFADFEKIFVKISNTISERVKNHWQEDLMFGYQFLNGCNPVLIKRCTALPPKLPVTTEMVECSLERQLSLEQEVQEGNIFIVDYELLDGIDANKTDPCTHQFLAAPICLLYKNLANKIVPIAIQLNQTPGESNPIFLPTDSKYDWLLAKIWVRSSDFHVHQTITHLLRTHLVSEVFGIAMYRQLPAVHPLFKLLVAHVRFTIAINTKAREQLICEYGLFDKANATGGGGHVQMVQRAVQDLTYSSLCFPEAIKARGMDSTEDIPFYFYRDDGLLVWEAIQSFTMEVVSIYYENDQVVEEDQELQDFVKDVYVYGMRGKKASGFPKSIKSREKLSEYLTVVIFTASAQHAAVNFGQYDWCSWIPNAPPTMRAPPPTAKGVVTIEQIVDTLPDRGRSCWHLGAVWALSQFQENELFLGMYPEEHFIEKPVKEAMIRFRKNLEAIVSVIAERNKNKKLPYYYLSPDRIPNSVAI
# Text: as §1, §2, §3, §4
# [1] = system: Passive cutaneous anaphylaxis (P.C.A.); assay: Inhibition of passive cutaneous anaphylaxis (P.C.A.); assay type: in vivo, rat (Sprague-Dawley); conditions: Rattus norvegicus, 1 h; rats, 2 × 10^-5 mol/kg p.o., one hour before ovalbumin challenge
# Procedure: (§5) 1. Determination of the inhibition of passive cutaneous anaphylaxis (P.C.A.) and of the anaphylactoid cutaneous reaction induced by histamine.
# The P.C.A. reaction was carried out according to the methods described by Goose et al. (J.N. Immunology 16 (1969), 749) and by Martin et al (Arch. Pharmacol. 316 (1981), 186}.
# The IgE-rich ovalbumin antiserum used in the test was obtained from immunized Brown-Norway rats. For immunization, the rats were given an i.p. injection of a mixture of 100 μg of ovalbumin with a Bordetella pertussis suspension (Vaxicoq®, Manufacturer: Institut Merieux, containing 5×10^9 organisms and 1.25 mg of Al(OH)3). After 20 days, the animals received a further i.p. injection of a solution of 10 μg of ovaIbumin in 0.5 ml of physiological saline solution for reimmunisation. After a further four days, the animals were bled, and the blood was centrifuged The antiserum obtained in this way was stored at -20° C. until use.
# (§6) The determination of the inhibition of passive cutaneous anaphylaxis and the anaphylactoid cutaneous reaction induced by histamine was carried out as follows:
# Sprague-Dawley rats having a body weight of 150-180 g were injected intradermally in one flank with 50 μl of a 1:75 dilution of the IgE-rich ovalbumin antiserum in physiological sodium chloride solution for passive sensitization to ovalbumin.
# 24 hours after sensitization a solution of 8.25 mg/kg of ovalbumin and 26.4 mg/kg of a blue dye (Evans' Blue) was administered i.v. to the rats according to Martin et al. to induce passive cutaneous anaphylaxis. The ovalbumin challenge caused a local anaphylactic reaction at the site at which the antiserum had been injected.
# (§7) On the test days, the test substances were dissolved in distilled water which contained 1% by volume of dimethylformamide and 1% by volume of Tween®20 (polyoxyethylene(20) sorbitan monolaurate). One hour before the challenging ovalbumin administration, each animal received 2×10^-5 mol/kg of test substance administered orally in 0.5 ml of solution. A control group received only the solvent for comparison.
# (§8) The oedematous anaphylactic (P.C.A.) and anaphylactoid (histamine-induced) reactions caused by the challenging i.v. ovalbumin injection, which are manifested by oedema formation, swelling and exudation of blue dye, were evaluated 30 minutes after challenge by the i.v. ovalbumin injection. This was done by visual determination of the extent to which the blue dye emerges at the sites of oedema formation. The percentage inhibition of anaphylactic and anaphylactoid reactions caused by the test substances was determined in comparison with the reactions of the control animals not treated with test substance with the aid of comparison scales.
# (§9) The results obtained by the above test methods using compounds of the formula I are shown in the following Table A. The example numbers given for the compounds of formula I relate to the following preparation examples.
# [2] = system: Histamine-induced anaphylactoid reactions; assay: Inhibition of anaphylactoid cutaneous reaction induced by histamine; assay type: in vivo, rat (Sprague-Dawley); conditions: Rattus norvegicus, 1 h; rats, 2 × 10^-5 mol/kg p.o., one hour before challenge; histamine intradermal
# Procedure: as §5, §6
# To determine the histamine-induced anaphylactoid skin reaction, the animals were injected intradermally in the flank opposite to the antiserum administration with 50 μl of a physiological saline solution containing 0.8 mg/ml of histamine directly before the i.v. injection of the solution containing the ovalbumin and the blue dye.
# as §7, §8, §9
# [3] = Determination of the minimum toxic dose; design: species or system male mice; conditions: mouse, in vivo, po, 300 mg/kg, 1440 min
# Procedure: 2. Determination of the minimum toxic dose.
# Maximum doses of 300 mg/kg of the test substance were administered orally to male mice weighing 20-25 g. The animals were observed carefully for 3 hours for toxicity symptoms. In addition, all symptoms and deaths over a period of 24 hours after administration were recorded. Associated symptoms were also observed and recorded. If death or severe toxic symptoms were observed, further mice were administered increasingly lower doses. The lowest dose which caused death or severe toxic symptoms is given as the minimum toxic dose in the following Table B.
# [4] = system: P.A.F.-induced aggregation of platelets from rabbit blood; assay: Anti-P.A.F. effect in vitro: inhibition of P.A.F.-induced platelet aggregation; assay type: cell-based, rabbit (New Zealand hybrids); conditions: Oryctolagus cuniculus, Platelet, test substance concentration 10^-5 mol/l
# Text: 4. Determination of anti-P.A.F. effect in vitro.
# Platelet-activating factor (P.A.F.) is a phospholipid mediator which has several effects. The activation of platelet aggregation leads to the induction of protracted broncho contractions and hyperreactivity of the airways.
# The effects of the test substances on platelet aggregation induced by adding P.A.F. to a platelet suspension obtained from rabbit blood was investigated by the method described by Mikashima et al. (Jap. J. Pharmacol. 44 (1987) 387-391).
# A suspension of platelets originating from rabbit blood was used which contained 4×10^9 platelets/ml in a modified Tyrode buffer solution adjusted to pH 7.4. Tyrode solution is an aqueous solution containing 136.9 mmol of NaCl, 2.68 mmol of KCl, 2.31 mmol of CaCl2, 1.0 mmol of MgCl2, 11.9 mmol of NaHCO3, 1.45 mmol of NaH2 PO4 and 5.55 mmol of glucose per liter. This solution was modified by adding 1.3 mM/l of CaCl2 and 2.5 g/l of gelatin. The platelets were obtained from 10 ml blood samples from each of three rabbits (New Zealand hybrids, body weight 3-4 kg). For this, the blood samples were treated with ethylenediaminetetraacetic acid and washed by the method of Artley et al. (Brit. J. Hamatol. 19 (1970), 7-17). A platelet-rich plasma was then initially separated by centrifugation (20 minutes at 400×g). The platelets were separated from the plasma by centrifuging again for 15 minutes at 1400×g. After centrifuging, the platelets remaining as a sediment were resuspended in a calcium-free Tyrode buffer solution. 0.4 mmol of lysine acetylsalicylate were then added and after 15 minutes the blood platelets were sedimented again. The sediment was resuspended in the abovementioned modified Tyrode buffer solution, and the number of platelets in the resulting suspension was adjusted to the desired content.
# A 40×10^-9 molar P.A.F. solution was used as the reagent. This solution was prepared from a 1.8×10^-3 molar stock solution in chloroform. For this, a 10μl sample of the stock solution was evaporated to dryness and redissolved in 180 μl of the modified Tyrode solution, to which 0.25% of dilapidated bovine serum albumin had been added. 10^-5 molar working solutions were then prepared from this and stored frozen. Samples of these solutions were appropriately diluted for the tests.
# To carry out the tests, 50 μl of the platelet solution and 10 μl of a 40×10^-5 molar solution of the compound to be investigated were added to 330 μl of the modified Tyrode buffer solution with stirring (1000 rpm) in an aggregation tube provided with a small magnetic stirrer. This corresponds to a final test substance concentration of 10^-5 mol/l. After a preincubation time of 90seconds, 10 μl of the P.A.F. preparation were added. The aggregation occurring in the aggregation tubes was measured for 4-5 minutes using a computerized aggregometer.
# The aggregation occurring in the test tubes containing only platelet suspension was rated as 0%. The aggregation occurring in test tubes containing platelet suspension and P.A.F. preparation was rated as 100%. The aggregation which still occurred in the presence of the test substances (i.e. during inhibition of the P.A.F.-induced platelet aggregation increase) was measured, and the resulting aggregation inhibition is calculated from this in %.
SMILES,inhibition at 10 µM (cyclooxygenase) [%],inhibition at 10 µM (5-lipoxygenase) [%],inhibition in vivo at 20 µmol/kg [1] [%],inhibition in vivo at 20 µmol/kg [2] [%],Minimum toxic dose (lowest dose which caused death or severe toxic symptoms) [3] [mg/kg],inhibition at 10 µM [4] [%]
Cc1ccnc(N2CCN(CCc3c(C)n4c5c(cc(CC6CCCCC6)cc35)CCC4)CC2)c1 [Example 84],46,20,–,–,–,–
Cc1ccnc(N2CCN(CCc3c(C)n4c5c(cc(C(=O)c6ccc(Cl)cc6)cc35)CCC4)CC2)c1 [Example 82],58,9,–,–,–,–
Cc1ccnc(N2CCN(CCc3c(-c4ccccc4)n4c5c(cccc35)CCC4)CC2)c1 [Example 40],–,–,70,43,300,100
Cc1c(CCN2CCC(C(=O)c3ccccc3)CC2)c2cccc3c2n1CCC3C (stereo not drawn) [Example 56],–,–,80,50,300,42

# Source: patent US5324725A, “7-fused 2-(piperazinoalkyl) indole derivatives, intermediates and compositions thereof” (Kali-Chemie Pharma GmbH, priority 1991, dated 1994)
